{
  "source": "patent US6602532B2",
  "about": "“Process of preserving food and food preservative” (F.G.A. Laboratories Flavourence Corporation, priority 2000, dated 2003)",
  "key": {"B. subtilis": {"tested_on": "B. subtilis", "assay": "Growth curve by turbidity at 660 nm", "type": "cell-based, Bacillus subtilis", "conditions": "for proliferation of B. subtilis compared with the control: serine 0.5% (w/v), 37° C., 10 hours, turbidity 660 nm, FIG. 3", "method": "(§1) (iii) L-serine or D-serine as the amino acid was dissolved in sterilized purified water and added with bacteria solutions (B. subtilis and S. typhimurium) of the same amount and then introduced in test tubes. 1 ml of each solution was inoculated on a 9 ml DM medium (partially modified) so that final serine concentration would be 0.5% (w/v). Turbidity of the medium added with the bacteria solution and serine was measured on 660 nm at 37° C. for 10 hours immediately after the inoculation and then growth curves of B. subtilis and S. typhimurium were formed.\n(§2) As a control, turbidity was measured on a medium merely added with sterilized purified water instead of serine.\n(§3) (ii) Turbidity was measured on 660 nm for 8 hours immediately after the inoculation and growth curves of S. typhimurium and B. subtilis were formed in substantially the same manner as the above-described (1)-(iii), except that only L-serine or D-serine of 0.5% (w/v), or L-serine or D serine of 0.5% (w/v) in combination with protamine of 0.03% (w/v), each at the final concentration, were added and solutions of S. typhimurium and B. subtilis were used.\nGrowth curves of B. subtilis were formed in the same manner as the above-described (4) except that protamine of 0.03% (w/v) was replaced with lysozyme of 0.1% (w/v).\n(§4) With compounds shown in FIGS. 14, 16 and 18, growth curves of S. typhimurium, B. subtilis and E. coli were formed in substantially the same manner as the above-described (1)-(111), respectively. The results are shown in FIGS. 14, 16 and 18, respectively. For comparison, the compounds were solely used without L-serine and the growth curves of S. typhimurium, B. subtilis and E. coli were formed. The results are shown in FIGS. 15, 17 and 19, respectively."}, "S. typhimurium": {"tested_on": "S. typhimurium", "assay": "Growth curve by turbidity at 660 nm", "type": "cell-based, Salmonella typhimurium", "method": "as §1, §2, §3, §4"}, "B. subtilis MF920": {"tested_on": "B. subtilis MF920", "assay": "Survival rate (viable cell count) after addition of amino acids and heat treatment", "type": "cell-based, Bacillus subtilis", "conditions": "heated at 80° C. for 10 minutes; for viable cell count compared with sterilized purified water alone: amino acid 1% (w/v), FIG. 5", "method": "In the same manner as the above-mentioned (1)-(i), additives of glycine, L-alanine, L-serine, L-lysine monohydrochloride, L-threonine and L-arginine monohydrochloride were dissolved in sterilized purified water, respectively to prepare amino acid solutions of 10% (w/v). Then a bacteria solution (B. subtilis MF920) was added to 1 ml of each of the amino acid solutions so that amino acid concentration in each tube would be 1% (w/v).\nThe test tubes were heated at 80° C. for 10 minutes and then quenched. Then, 10 fold dilutions of the obtained bacteria solutions were prepared.\n0.1 ml of each dilution was inoculated on three dishes and incubated 2 days to count expressed colonies. The survival rate was measured in the same manner as described above.\nChange in the bacteria survival rate was examined in the same manner as the above-mentioned (2) except that the concentration of L-serine was varied within 0.01 to 1% (w/v)."}, "E. coli [1]": {"tested_on": "E. coli", "assay": "Survival rate of E. coli after addition of L- or D-serine, with or without heat treatment", "type": "cell-based, Escherichia coli", "conditions": "serine 0.5% (w/v), FIG. 2", "method": "(i) Glycine, L-alanine, L-serine, L-lysine monohydrochloride, L threonine or L-arginine monohydrochloride was put in test tubes as an additive, respectively, and dissolved in sterilized purified water to prepare amino acid solutions of 10% (w/v). To 1 ml of each of the amino acid solutions 9 ml of the bacteria solution was added so that the concentration of each amino acid would be 1% (w/v).\nThe test tubes containing these amino acids and the bacteria solution were allowed to stand at room temperature for 10 minutes and 10^4 fold dilutions were obtained from the resulting solutions.\n0.1 ml of each dilution was inoculated on three dishes and incubated for 2 days to count the number of expressed colonies as the viable cell count.\nIn the same manner as described above, a 10^4 fold dilution prepared without adding amino acid was used as a blank and incubated to count expressed colonies as the viable cell count.\nAs a survival rate, the viable cell count of bacteria added with amino acid with respect to the viable cell count measured in the blank was measured.\n(ii) The survival rate of E. coli was measured in the same manner as described above except that L-serine and D-serine of 0.5% (w/v) as the amino acids and an E. coli solution as the bacteria solution were used."}, "E. coli [2]": {"tested_on": "E. coli", "assay": "Growth curve by turbidity at 660 nm", "type": "cell-based, Escherichia coli", "conditions": "L-serine 1.5% (w/v) solely, 8 hours; FIG. 7", "method": "as §1, §2\n(i) Turbidity of the medium was measured on 660 nm for 8 hours immediately after the inoculation and the growth curve of E. coli was formed in the same manner as the above-described (1)-(iii) except that L-serine of 1.5% (w/v), or L-serine or D-serine of 1.5% (w/v) and protamine of 0.1% (w/v), each at the final concentration, were added and an E. coli solution was used.\nWith compounds shown in FIGS. 14, 16 and 18, growth curves of S. typhimurium, B. subtilis and E. coli were formed in substantially the same manner as the above-described (1)-(111), respectively. The results are shown in FIGS. 14, 16 and 18, respectively. […]"}, "E. coli [3]": {"tested_on": "E. coli", "assay": "E. coli survival rate after heat treatment in the presence of casein", "type": "cell-based, Escherichia coli", "conditions": "L-serine 1% (w/v), casein 1 to 4% (w/v), heated at 40° C. for 10 minutes; FIG. 11", "method": "L-serine of 0% or 1% (w/v), casein of 1 to 4% (w/v) and a 802 growth medium were added in test tubes. The test tubes were heated at 40° C. for 10 minutes and quenched. 10-fold dilutions of the resulting solutions were prepared. 0.1 ml of each of the dilutions was inoculated on three dishes, incubated for one day and expressed colonies were counted to examine change in the E. coli survival rate."}, "[4]": {"assay": "Amino acid analysis of L-serine after a heat treatment", "type": "physicochemical", "conditions": "for L-serine concentration: nominal 2 nmol/10 μl", "method": "L-serine was added in 1% (w/v) to the bacteria solution and to the medium used in the above. The obtained bacteria culture solution and medium were divided in two test tubes, respectively. One of them was allowed to stand at room temperature for 10 minutes and the other was heated at 80° C. for 10 minutes. Both were quenched and diluted so that the L-serine concentration would be 2 nmol/10 μl and amino acid analysis was carried out with an amino acid automatic analyzer."}, "Escherichia coli": {"tested_on": "Escherichia coli", "conditions": "in the presence of ethanol; cited from earlier work"}, "[5]": {"conditions": "serine 0.5% (w/v) only, 8 hours, FIG. 8"}, "[6]": {"conditions": "serine 0.5% (w/v), 37° C., 10 hours, turbidity 660 nm, FIG. 4"}},
  "note": "“Also recorded” adds a separate entry of the source.",
  "data": [
    {"smiles": "N[C@H](CO)C(=O)O", "note": "[D-serine]", "values": [
      {"measurement": "proliferation of B. subtilis relative to the control", "setting": "B. subtilis; serine 0.5% (w/v) only, 8 hours, FIGS. 9 and 10", "result": "about 50%"},
      {"measurement": "proliferation of B. subtilis compared with the control", "setting": "B. subtilis", "result": 80, "unit": "%"},
      {"measurement": "proliferation of S. typhimurium relative to the control", "setting": "S. typhimurium; [5]", "result": "about 80%"},
      {"measurement": "proliferation of S. typhimurium relative to the control", "setting": "S. typhimurium; [6]", "result": "about 80%"}
    ]},
    {"smiles": "C[C@H](N)C(=O)O", "note": "[L-alanine]", "values": [
      {"measurement": "viable cell count compared with sterilized purified water alone", "setting": "B. subtilis MF920", "result": "slightly reduced"}
    ]},
    {"smiles": "Cl.N=C(N)NCCC[C@H](N)C(=O)O", "note": "[L-arginine, L-arginine monohydrochloride]", "values": [
      {"measurement": "viable cell count compared with sterilized purified water alone", "setting": "B. subtilis MF920", "result": "increase"}
    ]},
    {"smiles": "Cl.NCCCC[C@H](N)C(=O)O", "note": "[L-lysine, L-lysine monohydrochloride]", "values": [
      {"measurement": "viable cell count compared with sterilized purified water alone", "setting": "B. subtilis MF920", "result": "increase"}
    ]},
    {"smiles": "N[C@@H](CO)C(=O)O", "note": "[L-serine]", "values": [
      {"measurement": "bacteria proliferation after heat treatment", "setting": "E. coli [1]; heat treatment at 80° C. for 10 minutes", "result": "further inhibited"},
      {"measurement": "bacteria proliferation relative to the blank", "setting": "E. coli [1]; no heat treatment", "result": "about 30%"},
      {"measurement": "survival rate as a function of L-serine concentration", "setting": "B. subtilis MF920; L-serine 0.01 to 1% (w/v), FIG. 6", "result": "the higher the L-serine concentration was, the more the survival rate decreased"},
      {"measurement": "viable cell count compared with sterilized purified water alone", "setting": "B. subtilis MF920", "result": "remarkably reduced; also recorded: greatest reduction"},
      {"measurement": "proliferation of B. subtilis compared with the control", "setting": "B. subtilis", "result": "about 10%"},
      {"measurement": "proliferation of S. typhimurium relative to the control", "setting": "S. typhimurium; [5]", "result": "about 80%"},
      {"measurement": "proliferation of S. typhimurium relative to the control", "setting": "S. typhimurium; [6]", "result": "about 80%"},
      {"measurement": "proliferation of E. coli relative to the control", "setting": "E. coli [2]", "result": "about 40%"},
      {"measurement": "E. coli proliferation in the presence of casein", "setting": "E. coli [3]", "result": "effective inhibition"},
      {"measurement": "decomposition by heating", "setting": "[4]; 80° C. for 10 minutes, regardless of the presence of bacteria", "result": "would not be decomposed"},
      {"measurement": "L-serine concentration", "setting": "[4]; bacteria solution heated (80° C., 10 minutes)", "result": 2.3, "unit": "nmol/10 μl"},
      {"measurement": "L-serine concentration", "setting": "[4]; bacteria solution unheated (room temperature 10 minutes)", "result": 2.3, "unit": "nmol/10 μl"},
      {"measurement": "L-serine concentration", "setting": "[4]; medium heated (80° C., 10 minutes)", "result": 2.3, "unit": "nmol/10 μl"},
      {"measurement": "L-serine concentration", "setting": "[4]; medium unheated (room temperature 10 minutes)", "result": 2.2, "unit": "nmol/10 μl"}
    ]},
    {"smiles": "C[C@@H](O)[C@H](N)C(=O)O", "note": "[L-threonine]", "values": [
      {"measurement": "viable cell count compared with sterilized purified water alone", "setting": "B. subtilis MF920", "result": "increase"}
    ]},
    {"smiles": "NCC(=O)O", "note": "[glycine]", "values": [
      {"measurement": "viable cell count compared with sterilized purified water alone", "setting": "B. subtilis MF920", "result": "slightly reduced"},
      {"measurement": "bacteriostasis to Escherichia coli", "setting": "Escherichia coli", "result": "shows bacteriostasis"}
    ]}
  ]
}
